# Reference: patent US6462043B1 (dated 2002)
row,melting point,Compound
1,70 to 72 °C,CCCOCCCN1CN(C)/C(=N/[N+](=O)[O-])N(Cc2ccc(Cl)nc2)C1
2,173 to 174 °C,CN/C(=N/[N+](=O)[O-])NCc1cnc(Cl)c(Cl)c1
